{"source": "ChEMBL document CHEMBL4118087", "about": "“Inhibitors of CD73 May Provide a Treatment for Cancer and Autoimmune Diseases” (ACS Med Chem Lett, 2017)"}
{"biological_target": "5'-nucleotidase (Homo sapiens, UniProt P21589, T376A)", "sequence (P21589 27-549 T376A limits assumed)": "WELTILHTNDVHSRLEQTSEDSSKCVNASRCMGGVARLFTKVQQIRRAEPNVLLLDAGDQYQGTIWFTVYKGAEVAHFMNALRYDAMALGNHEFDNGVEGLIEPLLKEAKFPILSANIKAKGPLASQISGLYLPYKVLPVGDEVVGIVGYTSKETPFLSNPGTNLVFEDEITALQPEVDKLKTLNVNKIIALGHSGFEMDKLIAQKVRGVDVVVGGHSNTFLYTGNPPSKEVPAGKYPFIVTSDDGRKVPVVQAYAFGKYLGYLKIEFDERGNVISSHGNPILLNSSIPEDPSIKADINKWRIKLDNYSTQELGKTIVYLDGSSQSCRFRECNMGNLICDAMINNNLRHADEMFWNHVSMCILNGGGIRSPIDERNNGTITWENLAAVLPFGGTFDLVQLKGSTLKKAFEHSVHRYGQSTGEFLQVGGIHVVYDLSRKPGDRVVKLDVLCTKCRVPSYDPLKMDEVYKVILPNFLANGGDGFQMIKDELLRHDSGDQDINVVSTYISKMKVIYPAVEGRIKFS", "assay": "Inhibition of human flag-tagged CD73 Thr376Ala mutant (1 to 552 residues) assessed as reduction in conversion of AMP to adenosine incubated for 10 mins followed by AMP addition measured after 30 mins by RapidFire mass spectrometric analysis", "units": {"IC50": "nM"}}
{"smiles": "O=S1(=O)N=C(Nc2cc(F)c3[nH]ccc3c2)Nc2c(O)cc(Cl)c(Br)c21", "IC50": 63.1}
{"smiles": "O=S1(=O)NC(Nc2cccc(O)c2)=Nc2c(O)cc(F)cc21", "IC50": 100}
{"smiles": "O=S1(=O)NC(Nc2cccc3[nH]ncc23)=Nc2c1cc(Cl)c(F)c2O", "IC50": 15.8}
{"smiles": "CN(C)C(=O)Cc1cccc(NC2=Nc3c(O)cc(Cl)cc3S(=O)(=O)N2)c1", "IC50": 3160}
{"smiles": "O=S1(=O)NC(Nc2cccc3[nH]ccc23)=Nc2c(O)cc(Cl)cc21", "IC50": "≤ 316"}
{"smiles": "Cc1ccc(NC2=Nc3c(O)cc(Cl)cc3S(=O)(=O)N2)cc1", "IC50": 1000}
